Test results taken from PubChem BioAssay AID1963839 (Molecular Pharmacology Branch, DTP, NCI, 2024).

Tested on: 817829-284-R-J1-PDC complex spheroid viability
Assay: Anticancer human tumor 817829-284-R-J1-PDC patient-derived colon adenocarcinoma cell line growth inhibition [POLQ]
Details: for IC50: curve of first compound; for viability, T/C: stronger effect = lower value
Protocol: Multicellular complex tumor spheroid response to Polymerase (POL) inhibitors (novobiocin, ART-558, RP6685) in combination with a variety of drugs and investigational agents in selected tumor cell lines
The POL inhibitors (novobiocin, ART-558, and RP6685) were evaluated both individually and in combination with standard of care and investigational anticancer small molecules within a complex spheroid model of solid tumors. . Complex spheroids include a stromal component modeled by human endothelial cells (HUVEC) and fibroblasts modeled by human mesenchymal stem cells (MSCs). The concentration ranges selected for each drug and investigational agent were based upon clinically achievable concentrations if the clinical Cmax of the agent was known.
Compounds. The drugs and investigational agents: novobiocin (NSC847541), ART-558 (NSC835418), RP-6685 (NSC848927), peposertib (NSC802822), ceralasertib (NSC780249), elimusertib (NSC800525), camonsertib (NSC841442), AZD-1390 (NSC803789), olaparib (NSC753686), talazoparib (NSC767125), rucaparib (NSC756644), sotorasib (NSC818433), MRTX-1133 (NSC836407), SN-38 (NSC673596), topotecan (NSC609699), epotoside (NSC141540), doxorubicin (NSC123127), gemcitabine (NSC613327), 5-fluorouracil (NSC19893), paclitaxel (NSC125973), vemurafenib (NSC761431), MSA-2 (NSC828583), SN-011 (NSC837082), adavosertib (NSC754352), prexasertib (NSC758257), carboplatin (NSC241240) and oxaliplatin (NSC266046), were obtained from the National Cancer Institute (NCI) Developmental Therapeutics Program Chemical Repository (21). The FDA-approved anticancer drug set is available from the Developmental Therapeutics Program at https://dtp.cancer.gov/organization/dscb/obtaining/. […] The stock solutions were prepared in dimethyl sulfoxide (DMSO, Sigma-Aldrich, St. Louis, MO, cat. D2650), except for the platinum compounds which were prepared in saline (Quality Biological, Gaithersburg, MD, cat. 114-055-101), at 800-fold the tested concentration and stored at -70 degrees C prior to their use. All drugs and investigational agents were tested over a range starting from a high concentration at or near the clinical Cmax and decreasing in half-log increments. If the clinical Cmax for an agent had not been determined, the highest concentration tested was 10 microM, except for SN-38, which was tested at a high concentration of 1 microM.
Cell Culture. All cells were maintained in an incubator at 37 degrees C and 5% CO2 with 95% humidity. The PDC lines were cultured according to standard operating procedures established by the NCI PDMR (https://pdmr.cancer.gov). Table 3 of the manuscript, lists the cell lines along with the number of the three cell types plated to form the mct-spheroids and media for tumor cell growth. After thawing, all PDC lines, except 997537-175-T-J1-PDC and 415267-285-R-J2-PDC, were cultured in Matrigel-coated flasks prepared with a working solution of 1X Ham's F-12 nutrient mix, without supplementation (Thermo Fisher Scientific, cat. 11765054), 100 U/mL penicillin-streptomycin (Thermo Fisher Scientific, cat. 15140122), and 2.5% Matrigel (Corning Inc., Corning, NY, cat. 354248) for the first three passages. The two PDC lines 997537-175-T-J1-PDC and 415267-285-R-J2-PDC were cultured on uncoated flasks. The 857933-349-R-J2-PDC line was cultured in 6C/Colon 1B media containing advanced DMEM/F-12 (Thermo Fisher Scientific, cat. 12634028), 10 mM HEPES (Thermo Fisher Scientific, cat. 15630080), 1X GlutaMAX supplement (Thermo Fisher Scientific, cat. 35050061), 0.1 mg/mL primocin (InvivoGen, San Diego, CA, cat. ant-pm-2), 10% defined fetal bovine serum, heat inactivated (HyClone Laboratories Inc., Logan, UT, cat. SH30070.03HI), 50% L-WRN conditioned media (ATCC, cat. CRL-3276), 1.25 mM N-Acetyl-L-cysteine (Sigma-Aldrich, cat. A9165), 10 mM nicotinamide (Sigma-Aldrich, cat. N0636), 1X B-27 supplement (Thermo Fisher Scientific, cat. 17504044), 1X N-2 supplement (Thermo Fisher Scientific, cat. […]

[1] = second compound 0.0316 µM, first compound 0.0316 µM
[2] = second compound 0.0316 µM, first compound 0.1 µM
[3] = second compound 0.0316 µM, first compound 0.316 µM
[4] = second compound 0.0316 µM, first compound 1 µM
[5] = second compound 0.0316 µM, first compound 3.16 µM
[6] = second compound 0.0316 µM, first compound 10 µM
[7] = second compound 0.1 µM, first compound 0.0316 µM
[8] = second compound 0.1 µM, first compound 0.1 µM
[9] = second compound 0.1 µM, first compound 0.316 µM
[10] = second compound 0.1 µM, first compound 1 µM
[11] = second compound 0.1 µM, first compound 3.16 µM
[12] = second compound 0.1 µM, first compound 10 µM
[13] = second compound 0.316 µM, first compound 0.0316 µM
[14] = second compound 0.316 µM, first compound 0.1 µM
[15] = second compound 0.316 µM, first compound 0.316 µM
[16] = second compound 0.316 µM, first compound 1 µM
[17] = second compound 0.316 µM, first compound 3.16 µM
[18] = second compound 0.316 µM, first compound 10 µM
[19] = second compound 1 µM, first compound 0.0316 µM
[20] = second compound 1 µM, first compound 0.1 µM
[21] = second compound 1 µM, first compound 0.316 µM
[22] = second compound 1 µM, first compound 1 µM
[23] = second compound 1 µM, first compound 3.16 µM
[24] = second compound 1 µM, first compound 10 µM
[25] = second compound 3.16 µM, first compound 0.0316 µM
[26] = second compound 3.16 µM, first compound 0.1 µM
[27] = second compound 3.16 µM, first compound 0.316 µM
[28] = second compound 3.16 µM, first compound 1 µM
[29] = second compound 3.16 µM, first compound 3.16 µM
[30] = second compound 3.16 µM, first compound 10 µM
[31] = second compound 10 µM, first compound 0.0316 µM
[32] = second compound 10 µM, first compound 0.1 µM
[33] = second compound 10 µM, first compound 0.316 µM
[34] = second compound 10 µM, first compound 1 µM
[35] = second compound 10 µM, first compound 3.16 µM
[36] = second compound 10 µM, first compound 10 µM
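Also: spheroids exposed to compounds for 7 days.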
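For viability, T/C in this document: 100% = DMSO vehicle-treated spheroids.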

C#Cc1c(F)ccc2cc(O)cc(-c3ncc4c(N5CC6CCC(C5)N6)nc(OCC56CCCN5CC(F)C6)nc4c3F)c12 (stereo unspecified) + COC1C(OC(N)=O)C(O)C(Oc2ccc3c(O)c(NC(=O)c4ccc(O)c(CC=C(C)C)c4)c(=O)oc3c2C)OC1(C)C
IC50 (second compound 0.0316 µM): > 10 µM
IC50 (second compound 0.1 µM): > 10 µM
IC50 (second compound 0.316 µM): > 10 µM
IC50 (second compound 1 µM): 7.86 µM
IC50 (second compound 3.16 µM): > 10 µM
IC50 (second compound 10 µM): 8.11 µM
viability, T/C [1]: 88.1%
viability, T/C [2]: 92.5%
viability, T/C [3]: 135%
viability, T/C [4]: 119%
viability, T/C [5]: 102%
viability, T/C [6]: 93.4%
viability, T/C [7]: 95.6%
viability, T/C [8]: 107%
viability, T/C [9]: 102%
viability, T/C [10]: 114%
viability, T/C [11]: 89.2%
viability, T/C [12]: 106%
viability, T/C [13]: 88.1%
viability, T/C [14]: 105%
viability, T/C [15]: 87.5%
viability, T/C [16]: 116%
viability, T/C [17]: 127%
viability, T/C [18]: 66.5%
viability, T/C [19]: 110%
viability, T/C [20]: 140%
viability, T/C [21]: 109%
viability, T/C [22]: 126%
viability, T/C [23]: 101%
viability, T/C [24]: 36.5%
viability, T/C [25]: 117%
viability, T/C [26]: 121%
viability, T/C [27]: 99.1%
viability, T/C [28]: 113%
viability, T/C [29]: 113%
viability, T/C [30]: 56.7%
viability, T/C [31]: 87.3%
viability, T/C [32]: 113%
viability, T/C [33]: 144%
viability, T/C [34]: 101%
viability, T/C [35]: 132%
viability, T/C [36]: 35.4%

CC1COCCN1c1cc(C2(S(C)(=N)=O)CC2)nc(-c2ccnc3[nH]ccc23)n1 (stereo unspecified) + Cc1cccc(N(C)C(=O)C2C(O)CCN2c2nc(C)cc(C(F)(F)F)c2C#N)c1
IC50 (second compound 0.0316 µM): 0.377 µM
IC50 (second compound 0.1 µM): 0.407 µM
IC50 (second compound 0.316 µM): 0.567 µM
IC50 (second compound 1 µM): 0.337 µM
IC50 (second compound 3.16 µM): 0.394 µM
IC50 (second compound 10 µM): 0.454 µM
viability, T/C [1]: 114%
viability, T/C [2]: 82.1%
viability, T/C [3]: 62%
viability, T/C [4]: 20.7%
viability, T/C [5]: 9.12%
viability, T/C [6]: 5.39%
viability, T/C [7]: 80.6%
viability, T/C [8]: 91.1%
viability, T/C [9]: 53.5%
viability, T/C [10]: 24.7%
viability, T/C [11]: 7.03%
viability, T/C [12]: 4.47%
viability, T/C [13]: 121%
viability, T/C [14]: 102%
viability, T/C [15]: 75.9%
viability, T/C [16]: 25.7%
viability, T/C [17]: 9.72%
viability, T/C [18]: 5.65%
viability, T/C [19]: 104%
viability, T/C [20]: 118%
viability, T/C [21]: 52%
viability, T/C [22]: 30.7%
viability, T/C [23]: 7.73%
viability, T/C [24]: 5.65%
viability, T/C [25]: 105%
viability, T/C [26]: 86.3%
viability, T/C [27]: 54.6%
viability, T/C [28]: 28.7%
viability, T/C [29]: 7.73%
viability, T/C [30]: 4.73%
viability, T/C [31]: 75.6%
viability, T/C [32]: 92.2%
viability, T/C [33]: 56.6%
viability, T/C [34]: 27.7%
viability, T/C [35]: 8.08%
viability, T/C [36]: 5.23%

CC(C)n1c(=O)n(C)c2cnc3cc(F)c(-c4ccc(OCCCN5CCCCC5)nc4)cc3c21 + Nc1ccc(C#CCN(C(=O)Cc2ncc(C(F)(F)F)cc2C(F)(F)F)c2ccc(F)cc2)nn1
IC50 (second compound 0.0316 µM): > 10 µM
IC50 (second compound 0.1 µM): 7.8 µM
IC50 (second compound 0.316 µM): 8.1 µM
IC50 (second compound 1 µM): 6.5 µM
IC50 (second compound 3.16 µM): 9.72 µM
IC50 (second compound 10 µM): 7.91 µM
viability, T/C [1]: 84.8%
viability, T/C [2]: 92.4%
viability, T/C [3]: 79.6%
viability, T/C [4]: 95.8%
viability, T/C [5]: 85.7%
viability, T/C [6]: 60.4%
viability, T/C [7]: 85.2%
viability, T/C [8]: 77.2%
viability, T/C [9]: 94.5%
viability, T/C [10]: 88.9%
viability, T/C [11]: 84.8%
viability, T/C [12]: 40.4%
viability, T/C [13]: 96.1%
viability, T/C [14]: 95%
viability, T/C [15]: 110%
viability, T/C [16]: 83.1%
viability, T/C [17]: 81.3%
viability, T/C [18]: 43.3%
viability, T/C [19]: 95%
viability, T/C [20]: 89.1%
viability, T/C [21]: 103%
viability, T/C [22]: 87.7%
viability, T/C [23]: 76%
viability, T/C [24]: 34.7%
viability, T/C [25]: 81.8%
viability, T/C [26]: 86.2%
viability, T/C [27]: 105%
viability, T/C [28]: 94.5%
viability, T/C [29]: 92.8%
viability, T/C [30]: 48.9%
viability, T/C [31]: 81.7%
viability, T/C [32]: 96%
viability, T/C [33]: 106%
viability, T/C [34]: 76.3%
viability, T/C [35]: 82.2%
viability, T/C [36]: 42%
